Laboratory results: PubChem BioAssay (NCI)
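Cells were grown in 96-well plates and exposed to each compound for 48 hours at five concentrations; endpoints were interpolated linearly between bracketing concentrations, or set to the highest concentration if not reached. At the TGI there is no net growth.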

Legend:
Assay in all cases: growth of human tumour cells (NCI), 48 h
CCRF-CEM leukemia = tested on: CCRF-CEM leukemia
SK-OV-3 ovarian = tested on: SK-OV-3 ovarian
RPMI-8226 leukemia = tested on: RPMI-8226 leukemia
LOX IMVI melanoma = tested on: LOX IMVI melanoma
K-562 leukemia = tested on: K-562 leukemia
LXFL 529 NSCLC = tested on: LXFL 529 NSCLC
HT29 colon = tested on: HT29 colon
SK-MEL-5 melanoma = tested on: SK-MEL-5 melanoma
NCI-H226 lung = tested on: NCI-H226 lung
HOP-62 NSCLC = tested on: HOP-62 NSCLC
M19-MEL melanoma = tested on: M19-MEL melanoma
MCF7 breast = tested on: MCF7 breast
COLO 205 colon = tested on: COLO 205 colon
NCI/ADR-RES ovarian = tested on: NCI/ADR-RES ovarian
U251 CNS = tested on: U251 CNS
DMS 114 small cell lung = tested on: DMS 114 small cell lung
OVCAR-5 ovarian = tested on: OVCAR-5 ovarian
DLD-1 colon = tested on: DLD-1 colon
HS 578T breast = tested on: HS 578T breast
SR leukemia = tested on: SR leukemia
HCT-15 colon = tested on: HCT-15 colon
MALME-3M melanoma = tested on: MALME-3M melanoma
MDA-MB-231 breast = tested on: MDA-MB-231 breast
KM12 colon = tested on: KM12 colon
XF 498 CNS = tested on: XF 498 CNS
TK-10 renal = tested on: TK-10 renal
786-0 renal = tested on: 786-0 renal
OVCAR-8 ovarian = tested on: OVCAR-8 ovarian
HOP-92 NSCLC = tested on: HOP-92 NSCLC
SNB-19 CNS = tested on: SNB-19 CNS
OVCAR-4 ovarian = tested on: OVCAR-4 ovarian
HCT-116 colon = tested on: HCT-116 colon
MDA-MB-435 = tested on: MDA-MB-435
UACC-62 melanoma = tested on: UACC-62 melanoma
SN12C renal = tested on: SN12C renal
KM20L2 colon = tested on: KM20L2 colon
HCC-2998 colon = tested on: HCC-2998 colon
EKVX NSCLC = tested on: EKVX NSCLC
MOLT-4 leukemia = tested on: MOLT-4 leukemia
UACC-257 melanoma = tested on: UACC-257 melanoma
NCI-H460 lung = tested on: NCI-H460 lung
SW-620 colon = tested on: SW-620 colon
MDA-N = tested on: MDA-N
SK-MEL-28 melanoma = tested on: SK-MEL-28 melanoma
OVCAR-3 ovarian = tested on: OVCAR-3 ovarian
IGROV1 ovarian = tested on: IGROV1 ovarian
PC-3 prostate = tested on: PC-3 prostate
ACHN renal = tested on: ACHN renal
A549 NSCLC = tested on: A549 NSCLC
SF-268 CNS = tested on: SF-268 CNS
HL-60(TB) leukemia = tested on: HL-60(TB) leukemia
DU-145 prostate = tested on: DU-145 prostate
M14 melanoma = tested on: M14 melanoma
SK-MEL-2 melanoma = tested on: SK-MEL-2 melanoma
T-47D breast = tested on: T-47D breast
SF-295 CNS = tested on: SF-295 CNS
CAKI-1 renal = tested on: CAKI-1 renal
A498 renal = tested on: A498 renal
NCI-H23 lung = tested on: NCI-H23 lung
SF-539 CNS = tested on: SF-539 CNS
SNB-78 CNS = tested on: SNB-78 CNS
SNB-75 CNS = tested on: SNB-75 CNS
NCI-H522 lung = tested on: NCI-H522 lung
DMS 273 small cell lung = tested on: DMS 273 small cell lung
UO-31 renal = tested on: UO-31 renal
RXF 393 renal = tested on: RXF 393 renal

SMILES: COc1cc(/C=C2/C(=O)N(C(=O)c3ccccc3O)N=C2C)ccc1O
- TGI (CCRF-CEM leukemia): > 100 µM
- TGI (SK-OV-3 ovarian): > 86.5 µM
- TGI (RPMI-8226 leukemia): > 100 µM
- TGI (LOX IMVI melanoma): > 70.6 µM
- TGI (K-562 leukemia): > 100 µM
- TGI (LXFL 529 NSCLC): > 100 µM
- TGI (HT29 colon): > 100 µM
- TGI (SK-MEL-5 melanoma): > 42.1 µM
- TGI (NCI-H226 lung): 31.2 µM
- TGI (HOP-62 NSCLC): > 38.9 µM
- TGI (M19-MEL melanoma): > 100 µM
- TGI (MCF7 breast): > 100 µM
- TGI (COLO 205 colon): > 80.7 µM
- TGI (NCI/ADR-RES ovarian): > 100 µM
- TGI (U251 CNS): > 100 µM
- TGI (DMS 114 small cell lung): 7.73 µM
- TGI (OVCAR-5 ovarian): > 100 µM
- TGI (DLD-1 colon): > 100 µM
- TGI (HS 578T breast): > 100 µM
- TGI (SR leukemia): > 100 µM
- TGI (HCT-15 colon): > 100 µM
- TGI (MALME-3M melanoma): > 100 µM
- TGI (MDA-MB-231 breast): > 100 µM
- TGI (KM12 colon): > 100 µM
- TGI (XF 498 CNS): 79.6 µM
- TGI (TK-10 renal): > 100 µM
- TGI (786-0 renal): > 100 µM
- TGI (OVCAR-8 ovarian): > 100 µM
- TGI (HOP-92 NSCLC): > 100 µM
- TGI (SNB-19 CNS): > 100 µM
- TGI (OVCAR-4 ovarian): > 100 µM
- TGI (HCT-116 colon): > 100 µM
- TGI (MDA-MB-435): > 100 µM
- TGI (UACC-62 melanoma): 0.364 µM
- TGI (SN12C renal): > 39.1 µM
- TGI (KM20L2 colon): > 100 µM
- TGI (HCC-2998 colon): > 100 µM
- TGI (EKVX NSCLC): > 77.7 µM
- TGI (MOLT-4 leukemia): > 100 µM
- TGI (UACC-257 melanoma): > 100 µM
- TGI (NCI-H460 lung): > 100 µM
- TGI (SW-620 colon): > 100 µM
- TGI (MDA-N): > 100 µM
- TGI (SK-MEL-28 melanoma): > 100 µM
- TGI (OVCAR-3 ovarian): 0.989 µM
- TGI (IGROV1 ovarian): 2.06 µM
- TGI (PC-3 prostate): > 100 µM
- TGI (ACHN renal): > 100 µM
- TGI (A549 NSCLC): > 100 µM
- TGI (SF-268 CNS): > 100 µM
- TGI (HL-60(TB) leukemia): > 52.9 µM
- TGI (DU-145 prostate): > 100 µM
- TGI (M14 melanoma): 35.3 µM
- TGI (SK-MEL-2 melanoma): > 100 µM
- TGI (T-47D breast): > 100 µM
- TGI (SF-295 CNS): > 100 µM
- TGI (CAKI-1 renal): > 25.5 µM

SMILES: Cc1ccc(N2C(=O)/C(=C3\Sc4c(nc(C)n(C)c4=O)N3c3ccccc3)SC2=S)cc1
- TGI (CCRF-CEM leukemia): > 100 µM
- TGI (SK-OV-3 ovarian): > 100 µM
- TGI (RPMI-8226 leukemia): > 100 µM
- TGI (LOX IMVI melanoma): > 100 µM
- TGI (K-562 leukemia): > 100 µM
- TGI (A498 renal): 69 µM
- TGI (LXFL 529 NSCLC): > 100 µM
- TGI (HT29 colon): > 100 µM
- TGI (SK-MEL-5 melanoma): > 100 µM
- TGI (NCI-H226 lung): 64.6 µM
- TGI (M19-MEL melanoma): > 100 µM
- TGI (COLO 205 colon): > 100 µM
- TGI (NCI-H23 lung): > 100 µM
- TGI (U251 CNS): > 100 µM
- TGI (DMS 114 small cell lung): 95.1 µM
- TGI (OVCAR-5 ovarian): > 100 µM
- TGI (SR leukemia): > 100 µM
- TGI (SF-539 CNS): 33.7 µM
- TGI (HCT-15 colon): > 100 µM
- TGI (KM12 colon): > 100 µM
- TGI (XF 498 CNS): > 100 µM
- TGI (TK-10 renal): > 100 µM
- TGI (786-0 renal): > 100 µM
- TGI (OVCAR-8 ovarian): 91.3 µM
- TGI (HOP-92 NSCLC): > 100 µM
- TGI (SNB-19 CNS): > 100 µM
- TGI (OVCAR-4 ovarian): > 100 µM
- TGI (SNB-78 CNS): > 100 µM
- TGI (SNB-75 CNS): 79.4 µM
- TGI (NCI-H522 lung): > 100 µM
- TGI (HCT-116 colon): > 100 µM
- TGI (UACC-62 melanoma): > 100 µM
- TGI (SN12C renal): > 100 µM
- TGI (KM20L2 colon): > 100 µM
- TGI (HCC-2998 colon): > 100 µM
- TGI (EKVX NSCLC): > 100 µM
- TGI (MOLT-4 leukemia): > 100 µM
- TGI (UACC-257 melanoma): > 100 µM
- TGI (NCI-H460 lung): 44 µM
- TGI (SW-620 colon): > 100 µM
- TGI (SK-MEL-28 melanoma): > 100 µM
- TGI (IGROV1 ovarian): > 100 µM
- TGI (ACHN renal): > 100 µM
- TGI (A549 NSCLC): > 100 µM
- TGI (SF-268 CNS): > 100 µM
- TGI (HL-60(TB) leukemia): > 100 µM
- TGI (DMS 273 small cell lung): > 100 µM
- TGI (UO-31 renal): > 100 µM
- TGI (M14 melanoma): > 100 µM
- TGI (RXF 393 renal): 53.9 µM
- TGI (SK-MEL-2 melanoma): > 100 µM
- TGI (SF-295 CNS): > 100 µM
- TGI (CAKI-1 renal): > 100 µM

SMILES: CCc1nc2c([nH]1)C(=O)c1ccccc1C2=O
- TGI (CCRF-CEM leukemia): > 100 µM
- TGI (SK-OV-3 ovarian): > 100 µM
- TGI (K-562 leukemia): > 100 µM
- TGI (A498 renal): > 100 µM
- TGI (HT29 colon): > 100 µM
- TGI (NCI-H226 lung): > 100 µM
- TGI (HOP-62 NSCLC): > 100 µM
- TGI (M19-MEL melanoma): 31.8 µM
- TGI (NCI-H23 lung): > 100 µM
- TGI (U251 CNS): > 100 µM
- TGI (DMS 114 small cell lung): 70.6 µM
- TGI (OVCAR-5 ovarian): > 100 µM
- TGI (DLD-1 colon): > 100 µM
- TGI (SR leukemia): > 100 µM
- TGI (SF-539 CNS): > 100 µM
- TGI (HCT-15 colon): > 100 µM
- TGI (MALME-3M melanoma): 49.5 µM
- TGI (KM12 colon): > 100 µM
- TGI (XF 498 CNS): 67.1 µM
- TGI (TK-10 renal): > 100 µM
- TGI (786-0 renal): > 100 µM
- TGI (OVCAR-8 ovarian): > 100 µM
- TGI (SNB-19 CNS): > 100 µM
- TGI (OVCAR-4 ovarian): > 100 µM
- TGI (SNB-78 CNS): > 100 µM
- TGI (SNB-75 CNS): > 100 µM
- TGI (NCI-H522 lung): > 100 µM
- TGI (HCT-116 colon): 80.6 µM
- TGI (UACC-62 melanoma): > 100 µM
- TGI (SN12C renal): > 100 µM
- TGI (HCC-2998 colon): > 100 µM
- TGI (EKVX NSCLC): > 100 µM
- TGI (MOLT-4 leukemia): > 100 µM
- TGI (UACC-257 melanoma): 78 µM
- TGI (NCI-H460 lung): > 100 µM
- TGI (SW-620 colon): > 100 µM
- TGI (SK-MEL-28 melanoma): > 100 µM
- TGI (OVCAR-3 ovarian): 61.7 µM
- TGI (ACHN renal): > 100 µM
- TGI (A549 NSCLC): > 100 µM
- TGI (SF-268 CNS): > 100 µM
- TGI (HL-60(TB) leukemia): 94.7 µM
- TGI (DMS 273 small cell lung): > 100 µM
- TGI (UO-31 renal): > 100 µM
- TGI (M14 melanoma): > 100 µM
- TGI (RXF 393 renal): > 100 µM
- TGI (SK-MEL-2 melanoma): > 100 µM
- TGI (SF-295 CNS): > 100 µM
- TGI (CAKI-1 renal): > 100 µM
